# Patent US20250000855A1, “USE OF APOMORPHINE AS THERAPEUTIC AGENT FOR NECROPTOSIS-RELATED DISEASES” (INDUSTRY-ACADEMIC COOPERATION FOUNDATION, YONSEI UNIVERSITY, priority 2021, published 2025)
# What was measured:
# THP-1 cells = experiment: Propidium iodide (PI) uptake / cell membrane integrity in TBZ-induced necroptosis; type: cell-based, human
# Method: Cells were pretreated with Z-VAD (invivoGen, tlrl-vad) and a compound for 1 hour, and necroptosis was induced with TNF-α (ATGen, TNF0501) and BV6 (Biovision, B1332-5) for the indicated time. The prepared cells were appropriately treated according to analysis (Z-VAD: carbobenzoxy-valyl-alanyl-aspartyl, TNF-α: tumor necrosis factor-α, BV6: 4,4′-(1,6-hexanediyl)bis[N-methyl-L-alanyl-(2S)-2-cyclohexylglycyl-L-prolyl-β-phenyl-L-phenylalaninamide)
# Cells were plated in a flat, transparent-bottomed, black-walled 96-well plate, and subjected to 7-hour chemical treatment and necroptosis induction, and then PI (BD Biosciences, 556463) was added to a final concentration of 50 μg/ml. After incubation for 10 minutes under the original culture conditions, the cells were centrifuged at 400×g for 5 minutes. The emission wavelength at 617 nm following excitation at 530 nm was measured by real-time fluorescence monitoring on a Varioskan Flash 3001 plate reader. Data collection was performed at 37° C. (FIG. 1A).
# As a first screening process, to investigate changes in cell membrane integrity by measuring PI uptake (Experimental Method 1-8), a compound in which the PI uptake had been reduced to less than 30% of the signal intensity upon TBZ treatment was selected.
# After treating TBZ+APO-treated THP-1 cells with PI for 10 minutes, the PI taken up by the cells was measured on a microplate reader. […]
# MLKL protein = molecular target: T1, MLKL protein (Homo sapiens, UniProt Q8NB16); experiment: Surface plasmon resonance (SPR) analysis, binding to MLKL protein; details: MLKL immobilized on CM5 chip, Biacore T200, 25° C., 10 mM HEPES pH 7.4
# T1 construct: purchased Abcam ab241453
# T1 sequence (Q8NB16 1-471): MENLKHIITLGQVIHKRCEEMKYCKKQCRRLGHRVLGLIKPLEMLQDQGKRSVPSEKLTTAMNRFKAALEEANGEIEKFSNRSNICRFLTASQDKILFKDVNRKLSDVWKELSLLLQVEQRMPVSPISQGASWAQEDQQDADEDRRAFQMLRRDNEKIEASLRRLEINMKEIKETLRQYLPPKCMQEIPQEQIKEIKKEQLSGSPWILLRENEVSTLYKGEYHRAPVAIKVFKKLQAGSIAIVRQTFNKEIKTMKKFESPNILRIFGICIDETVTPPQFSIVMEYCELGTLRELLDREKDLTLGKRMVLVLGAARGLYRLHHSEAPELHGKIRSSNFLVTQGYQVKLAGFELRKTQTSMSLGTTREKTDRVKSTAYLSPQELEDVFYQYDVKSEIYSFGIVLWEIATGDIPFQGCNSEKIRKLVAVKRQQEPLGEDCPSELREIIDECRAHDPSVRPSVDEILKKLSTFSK
# Method: The interaction between MLKL and apomorphine (=APO) was detected through surface plasmon resonance (SPR) analysis using Biacore T200 (GE Healthcare). For pH scouting, a buffer consisting of 10 mM sodium acetate (pH 4.0 to 6.0) was used. MLKL protein (Abcam, ab241453), and MLKL N-term (amino acids 1-154) protein that had been purified in a laboratory were immobilized on the surface of a sensor chip CM5 (GE Healthcare) under scouted buffer conditions. To deduce an Rligand value, a coupling process was performed based on the molecular weights of MLKL, MLKL N-term domain (MW ligand), and APO (MW analyte). Oxidized (24 hr, RT incubation) and reduced (+DTT(DL-dithiothreitol)) forms of APO were injected into a running buffer (flow rate: 10 μl/min) consisting of 10 mM HEPES (pH 7.4) at 25° C. A sensorgram was recorded and analyzed in real time using control software provided by the Biacore T200 system itself. Six or more concentrations of APO were used in combination, and each KD value was derived. All run data was calculated using BIAevaluation Software (GE Healthcare).
# SPR analysis was used to analyze the interaction pattern between APO and the MLKL protein (Experimental Method 1-10). […] Here, the analysis was performed by binding MLKL and the MLKL N-term domain protein immobilized on a CM5 chip with APO having six concentrations.
smiles,measurement,setting,value
"CN1CCc2cccc3c2[C@H]1Cc1ccc(O)c(O)c1-3 [APO, apomorphine]",IC50,"THP-1 cells; Homo sapiens, THP-1, concentration-dependent APO treatment, FIG. 1D, read-out: IC50, change in cell membrane integrity",5700 nM
same,PI uptake rate,"THP-1 cells; THP-1 cells treated with TBZ (TNF-α+BV6+Z-VAD)+APO, PI 10 minutes, FIG. 1A",effectively reduced
same,Kd,MLKL protein,12.7 nM
